From ChEMBL document CHEMBL5576135, “Discovery of Indolo[3,2-c]isoquinoline Derivatives as Novel Top1/2 Dual Inhibitors with Orally Efficacious Antitumor Activity and Low Toxicity” (J Med Chem, 2024)
The source made the active and inactive calls. The rule behind the calls is not given here.

How the values were obtained:
MCF7 = assay: Antiproliferative activity against human MCF7 cells assessed as inhibition of cell growth incubated for 96 hrs by MTT based ELISA; assay type: functional; conditions: MCF7, 96 h
MDA-MB-231 = assay: Antiproliferative activity against human MDA-MB-231 cells assessed as inhibition of cell growth incubated for 96 hrs by MTT based ELISA; assay type: functional; conditions: MDA-MB-231, 96 h
PC-3 = assay: Antiproliferative activity against human PC-3 cells assessed as inhibition of cell growth incubated for 96 hrs by MTT based ELISA; assay type: functional; conditions: PC-3, 96 h
HCT-116 = assay: Antiproliferative activity against human HCT-116 cells assessed as inhibition of cell growth incubated for 96 hrs by MTT based ELISA; assay type: functional; conditions: HCT-116, 96 h
NCI-H2228 = assay: Antiproliferative activity against human NCI-H2228 cells assessed as inhibition of cell growth incubated for 96 hrs by MTT based ELISA; assay type: functional; conditions: NCI-H2228, 96 h
Huh-7 = assay: Antiproliferative activity against human Huh-7 cells assessed as inhibition of cell growth incubated for 96 hrs by MTT based ELISA; assay type: functional; conditions: Huh-7, 96 h
[1] = target: T1, DNA topoisomerase 1 (Homo sapiens) (UniProt P11387); assay: Inhibition of Topoisomerase I (unknown origin) using pBR322 DNA as substrate at 200 uM incubated for 15 mins by EtBr staining based agarose gel electrophoresis method relative to control
T1 sequence (whole entry): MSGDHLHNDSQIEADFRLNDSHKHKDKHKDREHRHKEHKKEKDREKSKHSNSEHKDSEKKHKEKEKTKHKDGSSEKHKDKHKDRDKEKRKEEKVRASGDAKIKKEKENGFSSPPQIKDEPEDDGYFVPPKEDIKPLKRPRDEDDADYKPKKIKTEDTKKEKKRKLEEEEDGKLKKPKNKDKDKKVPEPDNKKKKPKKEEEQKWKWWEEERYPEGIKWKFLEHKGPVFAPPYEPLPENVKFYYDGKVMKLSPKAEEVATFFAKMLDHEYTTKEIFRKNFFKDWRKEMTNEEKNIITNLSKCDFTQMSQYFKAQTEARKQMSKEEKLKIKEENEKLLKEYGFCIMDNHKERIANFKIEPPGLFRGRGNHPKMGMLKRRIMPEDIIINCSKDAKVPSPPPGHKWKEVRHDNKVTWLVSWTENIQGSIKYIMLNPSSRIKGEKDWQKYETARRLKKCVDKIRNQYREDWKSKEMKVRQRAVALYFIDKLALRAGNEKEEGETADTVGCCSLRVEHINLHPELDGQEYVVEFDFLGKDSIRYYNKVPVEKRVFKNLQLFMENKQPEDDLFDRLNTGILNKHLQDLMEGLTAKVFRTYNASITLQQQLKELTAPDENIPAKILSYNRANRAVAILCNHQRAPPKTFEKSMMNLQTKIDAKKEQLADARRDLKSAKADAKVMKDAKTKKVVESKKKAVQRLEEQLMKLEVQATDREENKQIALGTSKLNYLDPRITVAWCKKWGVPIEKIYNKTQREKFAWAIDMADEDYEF

[2] = target: DNA topoisomerase 2-alpha (Homo sapiens) (UniProt P11388); assay: Inhibition of Topoisomerase 2 (unknown origin) using pBR322 DNA as substrate at 100 uM incubated for 15 mins by EtBr staining based agarose gel electrophoresis method relative to control
[3] = target: T1, DNA topoisomerase 1 (Homo sapiens); assay: Inhibition of Topoisomerase I (unknown origin) using pBR322 DNA as substrate at 50 uM incubated for 15 mins by EtBr staining based agarose gel electrophoresis method
[4] = target: DNA topoisomerase 2-alpha (Homo sapiens) (UniProt P11388); assay: Inhibition of Topoisomerase 2 (unknown origin) using pBR322 DNA as substrate at 50 uM incubated for 15 mins by EtBr staining based agarose gel electrophoresis method

Chain of DNA topoisomerase 2-alpha (Homo sapiens) (P11388 whole entry): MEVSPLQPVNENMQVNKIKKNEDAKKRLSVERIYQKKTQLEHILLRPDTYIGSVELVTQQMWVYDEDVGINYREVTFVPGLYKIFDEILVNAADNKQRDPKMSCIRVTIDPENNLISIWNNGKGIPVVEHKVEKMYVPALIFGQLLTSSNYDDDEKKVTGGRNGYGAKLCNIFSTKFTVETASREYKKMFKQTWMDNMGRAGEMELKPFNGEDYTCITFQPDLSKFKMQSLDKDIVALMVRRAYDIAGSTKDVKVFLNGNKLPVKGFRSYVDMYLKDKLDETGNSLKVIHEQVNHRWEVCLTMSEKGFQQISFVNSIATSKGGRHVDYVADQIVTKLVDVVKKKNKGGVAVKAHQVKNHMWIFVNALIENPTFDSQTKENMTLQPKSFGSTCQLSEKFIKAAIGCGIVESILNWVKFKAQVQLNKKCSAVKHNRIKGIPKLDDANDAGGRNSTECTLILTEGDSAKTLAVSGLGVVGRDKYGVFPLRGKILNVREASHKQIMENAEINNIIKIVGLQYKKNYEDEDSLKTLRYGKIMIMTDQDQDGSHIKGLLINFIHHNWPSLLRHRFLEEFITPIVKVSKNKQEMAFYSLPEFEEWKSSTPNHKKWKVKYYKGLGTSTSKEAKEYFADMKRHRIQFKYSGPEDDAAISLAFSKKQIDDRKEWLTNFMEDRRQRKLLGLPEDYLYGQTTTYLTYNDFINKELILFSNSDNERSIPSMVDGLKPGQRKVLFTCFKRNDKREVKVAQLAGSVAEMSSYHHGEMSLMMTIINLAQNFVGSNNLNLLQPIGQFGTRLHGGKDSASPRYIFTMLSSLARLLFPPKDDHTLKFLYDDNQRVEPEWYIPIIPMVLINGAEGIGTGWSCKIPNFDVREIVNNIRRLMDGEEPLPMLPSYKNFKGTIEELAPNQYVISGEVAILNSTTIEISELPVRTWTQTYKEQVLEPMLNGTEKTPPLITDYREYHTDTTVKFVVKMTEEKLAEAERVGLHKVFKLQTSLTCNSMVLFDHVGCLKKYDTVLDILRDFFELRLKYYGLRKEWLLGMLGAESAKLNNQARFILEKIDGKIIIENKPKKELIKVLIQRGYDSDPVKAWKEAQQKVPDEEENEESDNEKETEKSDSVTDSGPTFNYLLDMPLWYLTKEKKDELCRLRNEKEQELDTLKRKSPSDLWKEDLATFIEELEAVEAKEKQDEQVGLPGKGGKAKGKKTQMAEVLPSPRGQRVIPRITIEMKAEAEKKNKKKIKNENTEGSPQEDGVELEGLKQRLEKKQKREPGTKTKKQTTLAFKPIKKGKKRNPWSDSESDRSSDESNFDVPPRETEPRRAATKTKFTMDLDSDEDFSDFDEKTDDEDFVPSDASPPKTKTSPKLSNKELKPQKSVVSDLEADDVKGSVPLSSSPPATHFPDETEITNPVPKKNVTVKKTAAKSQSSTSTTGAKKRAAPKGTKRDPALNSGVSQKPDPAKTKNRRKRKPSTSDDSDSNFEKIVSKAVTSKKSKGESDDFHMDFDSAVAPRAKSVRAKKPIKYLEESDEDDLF

Structure (SMILES)	IC50 (MCF7) [µM]	IC50 (MDA-MB-231) [µM]	IC50 (PC-3) [µM]	IC50 (HCT-116) [µM]	IC50 (NCI-H2228) [µM]	IC50 (Huh-7) [µM]	inhibition [1]	inhibition [2]	inhibition [3]	inhibition [4]
COc1ccc2c(c1)c1ncc3ccccc3c1n2CCCN(C)C	1.45	1.09	1.01	0.62	1.05	1.5	–	–	–	–
O=C(CCCn1c2ccccc2c2nc(Cl)c3ccccc3c21)NO	3.87	2.98	3.14	2.87	4.28	5.76	–	–	–	–
COc1ccc2c(c1)c1ncc3ccccc3c1n2CCCN1CCN(C(C)C)CC1	1.45	2.04	1.07	1.38	2.04	2.18	inactive	inactive	inactive	inactive
COc1ccc2c(c1)c1nc(Cl)c3ccccc3c1n2CCCN1CCC(N(C)C)CC1	2.96	4.1	2.7	2.55	2.73	4.36	–	–	–	–
COc1ccc2c(c1)c1nc(Cl)c3ccccc3c1n2CCCN1CCCC(O)C1 (stereo unspecified)	3.61	5.04	3.26	3.68	3.1	4.57	–	–	–	–
COc1ccc2c(c1)c1[nH]c(=O)c3ccccc3c1n2CCCN(C)C	1.41	1.92	1.32	0.55	2.03	2.55	–	–	–	–
COc1ccc2c(c1)c1nc(Cl)c3ccccc3c1n2CCCN1CCC(CO)CC1	> 10	> 10	> 10	> 10	> 10	> 10	–	–	–	–
COc1ccc2c(c1)c1nc(Cl)c3ccccc3c1n2CCCN(C)C	1.64	1.2	1.22	0.82	1.28	1.77	–	–	–	–
COc1ccc2c(c1)c1nc(Cl)c3ccccc3c1n2CCCN1CCC[C@@H]1CO	> 10	> 10	> 10	> 10	> 10	> 10	–	–	–	–
COc1ccc2c(c1)c1nc(Cl)c3ccccc3c1n2CCCn1c(=O)c(F)cn([C@@H]2O[C@H](CO)[C@@H](O)[C@H]2O)c1=O	> 10	> 10	> 10	> 10	> 10	> 10	–	–	–	–
COc1ccc2c(c1)c1nc(Cl)c3ccccc3c1n2CCCN1CCOCC1	> 10	> 10	> 10	> 10	> 10	> 10	–	–	–	–
COc1ccc2c(c1)c1nc(Cl)c3ccccc3c1n2CCCNc1ccn([C@@H]2O[C@H](CO)[C@@H](O)[C@@H]2O)c(=O)n1	> 10	> 10	> 10	> 10	> 10	> 10	–	–	–	–
CC(C)Oc1ccc2c(c1)c1ncc3ccccc3c1n2CCCC(=O)NO	4.56	1.78	2.57	2.14	4.86	4.43	–	–	–	–
COc1ccc2c(c1)c1nc(Cl)c3ccccc3c1n2CCCn1c(=O)[nH]cc(F)c1=O	> 10	> 10	> 10	> 10	> 10	> 10	–	–	–	–
CCOc1ccc2c(c1)c1nc(Cl)c3ccccc3c1n2CCCC(=O)NO	3.73	1.92	2.58	1.8	4.66	3.92	–	–	–	–
COc1ccc2c(c1)c1nc(Cl)c3ccccc3c1n2CCCNc1nc(=O)n([C@@H]2O[C@H](CO)[C@@H](O)[C@H]2O)cc1F	> 10	> 10	> 10	> 10	> 10	> 10	–	–	–	–
CC(C)Oc1ccc2c(c1)c1[nH]c(=O)c3ccccc3c1n2CCCN(C)C	> 10	5.6	4.91	2.26	2.56	6.74	–	–	–	–
